≈ marks a conversion by molar mass, not a printed value.
Biological target: α-glucosidase
Assay: in vitro α-glucosidase inhibition assay, triplicate, serial dilutions
Assay type: biochemical

With `CC(C)=CCc1ccc2c(CC#N)c[nH]c2c1` [compound 2, 3-cyanomethyl-6-prenylindole] the “IC50 (μg/mL)^a” value was 86.21 µg/mL (≈ 384 µM).

Source: paper PMC11490992 (Microbial Cell Factories, 2024)
